# Columns and labels:
# Format in all cases: functional
# Mythimna separata [1] = test: Insecticidal activity against Mythimna separata (Oriental armyworm) fourth-instar larvae reared compound pre-treated corn leaves assessed as insect mortality measured 2 days post compound dose
# Mythimna separata [2] = test: Insecticidal activity against Mythimna separata (Oriental armyworm) fourth-instar larvae reared compound pre-treated corn leaves assessed as insect mortality at 1 mg/L measured 2 days post compound dose
# Aphis fabae [3] = test: Insecticidal activity against Aphis fabae (black bean aphid) infested soybean tender shoots at 2 mg/L measured 48 hr post compound dose by modified FAO dip method
# Mythimna separata [4] = test: Insecticidal activity against Mythimna separata (Oriental armyworm) fourth-instar larvae reared compound pre-treated corn leaves assessed as insect mortality at 0.5 mg/L measured 2 days post compound dose
# Aphis fabae [5] = test: Insecticidal activity against Aphis fabae (black bean aphid infested soybean tender shoots measured 48 hr post compound dose by modified FAO dip method
# Aphis fabae [6] = test: Insecticidal activity against Aphis fabae (black bean aphid) infested soybean tender shoots at 0.125 mg/L measured 48 hr post compound dose by modified FAO dip method
# Mythimna separata [7] = test: Insecticidal activity against Mythimna separata (Oriental armyworm) fourth-instar larvae reared compound pre-treated corn leaves assessed as insect mortality at 10 mg/L measured 2 days post compound dose
# Mythimna separata [8] = test: Insecticidal activity against fourth-instar larvae of Mythimna separata (Oriental armyworm) reared on compound pre-treated corn leaves assessed as insect mortality at 0.03125 mg/L measured 2 days post compound dose
# Aphis fabae [9] = test: Insecticidal activity against Aphis fabae (black bean aphid) infested soybean tender shoots at 0.0625 mg/L measured 48 hr post compound dose by modified FAO dip method
# Mythimna separata [10] = test: Insecticidal activity against fourth-instar larvae of Mythimna separata (Oriental armyworm) reared on compound pre-treated corn leaves assessed as insect mortality at 0.125 mg/L measured 2 days post compound dose
# Mythimna separata [11] = test: Insecticidal activity against fourth-instar larvae of Mythimna separata (Oriental armyworm) reared on compound pre-treated corn leaves assessed as insect mortality at 0.0625 mg/L measured 2 days post compound dose
# Mythimna separata [12] = test: Insecticidal activity against Mythimna separata (Oriental armyworm) fourth-instar larvae reared compound pre-treated corn leaves assessed as insect mortality at 0.25 mg/L measured 2 days post compound dose
# Aphis fabae [13] = test: Insecticidal activity against Aphis fabae (black bean aphid) infested soybean tender shoots at 0.25 mg/L measured 48 hr post compound dose by modified FAO dip method
# Aphis fabae [14] = test: Insecticidal activity against Aphis fabae (black bean aphid) infested soybean tender shoots at 1 mg/L measured 48 hr post compound dose by modified FAO dip method
# Aphis fabae [15] = test: Insecticidal activity against Aphis fabae (black bean aphid) infested soybean tender shoots at 10 mg/L measured 48 hr post compound dose by modified FAO dip method
# Aphis fabae [16] = test: Insecticidal activity against Aphis fabae (black bean aphid) infested soybean tender shoots at 0.5 mg/L measured 48 hr post compound dose by modified FAO dip method
# Tetranychus cinnabarinus = test: Insecticidal activity against Tetranychus cinnabarinus (carmine spider mite) […] assessed as larvicidal activity at 0.006 mg/L after 48 hr
# Aphis fabae [17] = test: Insecticidal activity against Aphis fabae (black bean aphid) infested soybean tender shoots at 2.5 mg/L measured 48 hr post compound dose by modified FAO dip method
# Mythimna separata [18] = test: Insecticidal activity against Mythimna separata (Oriental armyworm) fourth-instar larvae reared compound pre-treated corn leaves assessed as insect mortality at 2.5 mg/L measured 2 days post compound dose
# Aphis fabae [19] = test: Insecticidal activity against Aphis fabae (black bean aphid) infested soybean tender shoots at 0.625 mg/L measured 48 hr post compound dose by modified FAO dip method
# Mythimna separata [20] = test: Insecticidal activity against Mythimna separata (Oriental armyworm) fourth-instar larvae reared compound pre-treated corn leaves assessed as insect mortality at 0.625 mg/L measured 2 days post compound dose
# Aphis fabae [21] = test: Insecticidal activity against Aphis fabae (black bean aphid) infested soybean tender shoots measured 48 hr post compound dose by modified FAO dip method; parameters: concentration or dose not given beside the values
# Mythimna separata [22] = test: Insecticidal activity against Mythimna separata (Oriental armyworm) fourth-instar larvae reared compound pre-treated corn leaves assessed as insect mortality at 200 mg/L measured 2 days post compound dose
Compound,mortality at 10 µg/mL (Mythimna separata [7]),mortality at 10 µg/mL (Aphis fabae [15]),mortality at 0.006 µg/mL (Tetranychus cinnabarinus),mortality at 2.5 µg/mL (Aphis fabae [17]),mortality at 2.5 µg/mL (Mythimna separata [18]),mortality at 0.625 µg/mL (Aphis fabae [19]),mortality at 0.625 µg/mL (Mythimna separata [20]),mortality (Aphis fabae [21]),further results
CCC(C)[C@H]1O[C@]2(CC[C@@H]1C)C[C@@H]1C[C@@H](C/C=C(\C)[C@@H](OC(=O)C(C)(C)CC)[C@@H](C)/C=C/C=C3\CO[C@@H]4[C@H](O)C(C)=C[C@@H](C(=O)O1)[C@]34O)O2 (some centres not stated),100%,100%,60.7%,–,–,–,–,–,"LC50 (Mythimna separata [1]): 0.25 µg/mL; mortality at 1 µg/mL (Mythimna separata [2]): 96.9%; mortality at 2 µg/mL (Aphis fabae [3]): 92.9%; mortality at 0.5 µg/mL (Mythimna separata [4]): 75.2%; LC50 (Aphis fabae [5]; Aphis fabae, 48 h): 0.15 µg/mL; mortality at 0.125 µg/mL (Aphis fabae [6]): 45.5%; mortality at 0.03125 µg/mL (Mythimna separata [8]): 0%; mortality at 0.0625 µg/mL (Aphis fabae [9]): 38%; mortality at 0.125 µg/mL (Mythimna separata [10]): 16.7%; mortality at 0.0625 µg/mL (Mythimna separata [11]): 0%; mortality at 0.25 µg/mL (Mythimna separata [12]): 60%; mortality at 0.25 µg/mL (Aphis fabae [13]): 57.6%; mortality at 1 µg/mL (Aphis fabae [14]): 85.4%; mortality at 0.5 µg/mL (Aphis fabae [16]): 68.2%"
CCC(C)[C@H]1O[C@]2(CC[C@@H]1C)C[C@@H]1C[C@@H](C/C=C(\C)[C@@H](OC(=O)Nc3cccc(C)c3)[C@@H](C)/C=C/C=C3\CO[C@@H]4[C@H](O)C(C)=C[C@@H](C(=O)O1)[C@]34O)O2 (some centres not stated),98.6%,100%,56.6%,98.9%,76.7%,86.1%,43.2%,–,–
IVERMECTIN,–,–,–,–,–,–,–,–,LC50 (Mythimna separata [1]): 0.19 µg/mL; mortality (Mythimna separata [2]): 100%; mortality (Aphis fabae [3]): 100%; mortality (Mythimna separata [4]): 90.9%; LC50 (Aphis fabae [5]): 0.06 µg/mL; LC90 (Aphis fabae [5]): 0.646 µg/mL; mortality (Aphis fabae [6]): 66.3%; mortality (Mythimna separata [8]): 0%; mortality (Aphis fabae [9]): 53.6%; mortality (Mythimna separata [10]): 29.1%; mortality (Mythimna separata [11]): 6.4%; mortality (Mythimna separata [12]): 66.7%; mortality (Aphis fabae [13]): 74.1%; mortality (Aphis fabae [14]): 93.5%; mortality (Aphis fabae [16]): 89.1%; mortality (Tetranychus cinnabarinus): 57.9%
CCC(C)[C@H]1O[C@]2(CC[C@@H]1C)C[C@@H]1C[C@@H](C/C=C(\C)[C@@H](OC(=O)C3C(C=C(Cl)Cl)C3(C)C)[C@@H](C)/C=C/C=C3\CO[C@@H]4[C@H](O)C(C)=C[C@@H](C(=O)O1)[C@]34O)O2 (some centres not stated),6.7%,–,31.7%,–,6.4%,–,3.3%,87.9%,–
CCC(C)[C@H]1O[C@]2(CC[C@@H]1C)C[C@@H]1C[C@@H](C/C=C(\C)[C@@H](O[C@H]3C[C@H](OC)[C@@H](OC(=O)c4ccccc4)[C@H](C)O3)[C@@H](C)/C=C/C=C3\CO[C@@H]4[C@H](O)C(C)=C[C@@H](C(=O)O1)[C@]34O)O2 (some centres not stated),100%,100%,24.8%,100%,100%,86.3%,38.8%,–,–
CCC(C)[C@H]1O[C@]2(CC[C@@H]1C)C[C@@H]1C[C@@H](C/C=C(\C)[C@@H](OC(=O)c3ccc(Cl)cc3)[C@@H](C)/C=C/C=C3\CO[C@@H]4[C@H](O)C(C)=C[C@@H](C(=O)O1)[C@]34O)O2 (some centres not stated),100%,–,26.9%,–,24.9%,–,0%,87.9%,–
CCC(C)[C@H]1O[C@]2(CC[C@@H]1C)C[C@@H]1C[C@@H](C/C=C(\C)[C@@H](O[C@H]3C[C@H](OC)[C@@H](OC(=O)Nc4cccc(C)c4)[C@H](C)O3)[C@@H](C)/C=C/C=C3\CO[C@@H]4[C@H](O)C(C)=C[C@@H](C(=O)O1)[C@]34O)O2 (some centres not stated),100%,100%,49.2%,100%,98.6%,88.5%,56.3%,–,–
CCC(C)[C@H]1O[C@]2(CC[C@@H]1C)C[C@@H]1C[C@@H](C/C=C(\C)[C@@H](OC(=O)CC(C)(C)C)[C@@H](C)/C=C/C=C3\CO[C@@H]4[C@H](O)C(C)=C[C@@H](C(=O)O1)[C@]34O)O2 (some centres not stated),–,–,35.5%,–,–,–,–,76.5%,mortality at 200 µg/mL (Mythimna separata [22]): 88.9%
